We go through 31 compounds from patent publication US8822468B2 (Novartis AG, priority 2008, dated 2014).

Each structure is given as a SMILES string. pIC50: −log10 of the molar value. Some results are limits rather than exact numbers.

In this assay the target is T1, cMET receptor tyrosine kinase (GST-cMET (969-1390)) (Homo sapiens, UniProt P08581).
T1 construct: made in house
T1 sequence (P08581 969-1390): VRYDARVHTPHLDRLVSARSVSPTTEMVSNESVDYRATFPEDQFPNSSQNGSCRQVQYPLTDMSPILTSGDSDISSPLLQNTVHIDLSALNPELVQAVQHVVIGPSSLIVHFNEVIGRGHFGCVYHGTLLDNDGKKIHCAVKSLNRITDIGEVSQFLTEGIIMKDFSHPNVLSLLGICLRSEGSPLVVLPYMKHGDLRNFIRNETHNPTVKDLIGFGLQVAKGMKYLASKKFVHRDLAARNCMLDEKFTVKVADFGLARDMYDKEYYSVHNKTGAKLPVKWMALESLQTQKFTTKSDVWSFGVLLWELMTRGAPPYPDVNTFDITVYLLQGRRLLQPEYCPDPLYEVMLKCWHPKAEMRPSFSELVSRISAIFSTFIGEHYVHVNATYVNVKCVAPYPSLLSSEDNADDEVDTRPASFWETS
In words: EPK cMET profiling assay (LanthaScreen TR-FRET antibody based kinase phosphorylation assay). The assay is classed as biochemical. Conditions: purified recombinant GST-cMET (969-1390), 2 μM ATP, 50 nM Fluorescein-PolyEAY, 60 minutes at room temperature; read-out: c-Met IC50. The gist of the method: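 GST-cMET cytoplasmic domain (969-1390), 0.3 nM, phosphorylated 50 nM fluorescein-PolyEAY with 2 µM ATP, Mg2+/Mn2+, 0.6% DMSO, 60 min at room temperature. Stopped with EDTA; Tb-PY20 antibody TR-FRET single end-point read. Final compound concentrations 10 to 0.003 µM, 8 points.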
For the compound `CN(C)c1ccc2ncc(Cc3ccc4ncccc4c3)n2n1` [Example 106, Dimethyl-(3-quinolin-6-ylmethyl-imidazo[1,2-b]pyridazin-6-yl)-amine], the pIC50 was 7.13.
The value for `CN1CCC(n2cc(-c3ccc4ncc(Cc5c(F)cc6ncccc6c5F)n4n3)cn2)CC1` [Example 246, 5,7-Difluoro-6-{6-[1-(1-methyl-piperidin-4-yl)-1H-pyrazol-4-yl]-imidazo[1,2-b]pyridazin-3-ylmethyl}-quinoline] was greater than 8.52; that for `CCCn1cc(-c2ccc3ncc(Cc4ccc5ncccc5c4)n3n2)cn1` [Example 46, 6-[6-(1-Propyl-1H-pyrazol-4-yl)-imidazo[1,2-b]pyridazin-3-ylmethyl]-quinoline] was 7.24.
Take `Fc1cc2ncccc2cc1Cc1cnc2ccc(-c3cnn(C4CCNCC4)c3)nn12` [Example 180, 7-Fluoro-6-[6-(1-piperidin-4-yl-1H-pyrazol-4-yl)-imidazo[1,2-b]pyridazin-3-ylmethyl]-quinoline]: the negative-log IC50 (pIC50) was 6.84.
The same measure for `CCn1cc(-c2ccc3ncc(C(O)c4cc5cccnc5cc4F)n3n2)cn1` (racemic) [Example 249, (rac)-[6-(1-Ethyl-1H-pyrazol-4-yl)-imidazo[1,2-b]pyridazin-3-yl]-(7-fluoro-quinolin-6-yl)methanol]: 6.42.
The value for `CC(=O)NCCNc1ccc2ncc(Cc3ccc4ncccc4c3)n2n1` [Example 96, N-[2-(3-Quinolin-6-ylmethyl-imidazo[1,2-b]pyridazin-6-ylamino)-ethyl]-acetamide] was 6.72; that for `CC(c1cc2cccnc2cc1F)c1cnc2ccc(-c3cnn(C4CCN(C)CC4)c3)nn12` (racemic) [Example 259, (rac)-7-Fluoro-6-(1-{6-[1-(1-methyl-piperidin-4-yl)-1H-pyrazol-4-yl]-imidazo[1,2-b]pyridazin-3-yl}-ethyl)-quinoline] was 7.64.
The value for `O=C1CCN(c2ccc3ncc(Cc4ccc5ncccc5c4)n3n2)CCN1` [Example 109, 1-(3-Quinolin-6-ylmethyl-imidazo[1,2-b]pyridazin-6-yl)-[1,4]diazepan-5-one] was 7.21; that for `C=C(c1ccc2ncccc2c1)c1cnc2ccc(-c3cnn(C)c3)nn12` [Example 155, 6-{1-[6-(1-Methyl-1H-pyrazol-4-yl)-imidazo[1,2-b]pyridazin-3-yl]-vinyl}-quinoline] was 6.07.
Consider `O=S1(=O)CCC(Nc2ccc3ncc(Cc4ccc5ncccc5c4)n3n2)C1` (stereo not shown) [Example 99, 1,1-Dioxo-tetrahydro-1lambda*6*-thiophen-3-yl)-(3-quinolin-6-ylmethyl-imidazo[1,2-b]pyridazin-6-yl)-amine], for which the pIC50 was 6.92.
The value for `c1cnc2ccc(Cc3cnc4ccc(-c5cncnc5)nn34)cc2c1` [Example 54, 6-(6-Pyrimidin-5-yl-imidazo[1,2-b]pyridazin-3-ylmethyl)-quinoline] was 6.92; that for `c1ccc(-c2cc(-c3ccc4ncc(Cc5ccc6ncccc6c5)n4n3)on2)cc1` [Example 34, 6-[6-(3-Phenyl-isoxazol-5-yl)-imidazo[1,2-b]pyridazin-3-ylmethyl]-quinoline] was 6.64.
The value for `CC(c1ccc2ncc(Br)n2c1)c1cnc2ccc(-c3cnn(CCO)c3)nn12` (racemic) [Example 310, (rac)-2-(4-{3-[1-(3-Bromo-imidazo[1,2-a]pyridin-6-yl)-ethyl]-imidazo[1,2-b]pyridazin-6-yl}-pyrazol-1-yl)-ethanol] was 8.00; that for `CN1CC(n2cc(-c3ccc4ncc(Cc5cc6cccnc6cc5F)n4n3)cn2)C1` [Example 146, 7-Fluoro-6-{6-[1-(1-methyl-azetidin-3-yl)-1H-pyrazol-4-yl]-imidazo[1,2-b]pyridazin-3-ylmethyl}-quinoline] was 7.17.
For `C[C@@H](c1ccc2c(cnn2C)c1)c1cnc2ccc(-c3cnn(C)c3)nn12` [Example 196, 3-[(S)-1-(1-Methyl-1H-indazol-5-yl)-ethyl]-6-(1-methyl-1H-pyrazol-4-yl)-imidazo[1,2-b]pyridazine], the pIC50 is 7.44.
The value for `c1cnc2ccc(Cc3cnc4ccc(-c5cnn(CCN6CCC6)c5)nn34)cc2c1` [Example 235, 6-{6-[1-(2-Azetidin-1-yl-ethyl)-1H-pyrazol-4-yl]-imidazo[1,2-b]pyridazin-3-ylmethyl}-quinoline] was 6.66; that for `OCCn1cc(-c2ccc3ncc(Cc4c(F)cc5ncccc5c4F)n3n2)cn1` [Example 171, 2-{4-[3-(5,7-Difluoro-quinolin-6-ylmethyl)-imidazo[1,2-b]pyridazin-6-yl]-pyrazol-1-yl}-ethanol] was greater than 8.52; that for `Cn1cc(-c2ccc3ncc(Cc4ccc(O)cc4)n3n2)cn1` [Example 5, 4-[6-(1-Methyl-1H-pyrazol-4-yl)-imidazo[1,2-b]pyridazin-3-ylmethyl]-phenol] was 7.28.
The value for `c1cnc2ccc(Cc3cnc4ccc(-c5ccsc5)nn34)cc2c1` [Example 65, 6-(6-Thiophen-3-yl-imidazo[1,2-b]pyridazin-3-ylmethyl)-quinoline] was 6.80; that for `CC(O)(c1c(F)cc2ncccc2c1F)c1cnc2ccc(-c3cnn(CCO)c3)nn12` (racemic) [Example 267, (rac)-1-(5,7-Difluoro-quinolin-6-yl)-1-{6-[1-(2-hydroxy-ethyl)-1H-pyrazol-4-yl]-imidazo[1,2-b]pyridazin-3-yl}-ethanol] was 6.59; that for `O=C1CN(c2ccc3ncc(Cc4ccc5ncccc5c4)n3n2)CCN1` [Example 102, 4-(3-Quinolin-6-ylmethyl-imidazo[1,2-b]pyridazin-6-yl)-piperazin-2-one] was 7.42.
The value for `CC(c1ccc2ncn(CCN3CCCC3)c2c1)c1cnc2ccc(-c3cnn(C)c3)nn12` (racemic) [Example 207, (rac)-6-(1-Methyl-1H-pyrazol-4-yl)-3-{1-[3-(2-pyrrolidin-1-yl-ethyl)-3H-benzoimidazol-5-yl]-ethyl}-imidazo[1,2-b]pyridazine] was 6.51; that for `c1cnc2ccc(Cc3cnc4ccc(-c5cnn(C6CCNCC6)c5)nn34)cc2c1` [Example 7, 6-[6-(1-piperidin-4-yl-1H-pyrazol-4-yl)-imidazo[1,2-b]pyridazin-3-ylmethyl]-quinoline] was 7.30; that for `CC(c1ccc2nccn2c1)c1cnc2ccc(-c3cnn(CCO)c3)nn12` (racemic) [Example 189, (rac)-2-{4-[3-(1-Imidazo[1,2-a]pyridin-6-yl-ethyl)-imidazo[1,2-b]pyridazin-6-yl]-pyrazol-1-yl}-ethanol] was 7.02.
For the compound `C[C@@H](c1ccc2ncccc2c1)c1cnc2ccc(-c3cnn(CCO)c3)nn12` [Example 179, 2-{4-[3-((S)-1-Quinolin-6-yl-ethyl)-imidazo[1,2-b]pyridazin-6-yl]-pyrazol-1-yl}-ethanol], the pIC50 was 7.82.
The same measure for `F[C@H]1CCN(c2ccc3ncc(Cc4ccc5ncccc5c4)n3n2)C1` [Example 125, 6-[6-((S)-3-Fluoro-pyrrolidin-1-yl)-imidazo[1,2-b]pyridazin-3-ylmethyl]-quinoline]: 6.89; for `CC(c1ccc(O)cc1)c1cnc2ccc(-c3cnn(C)c3)nn12` (racemic) [Example 222, (rac)-4-{1-[6-(1-Methyl-1H-pyrazol-4-yl)-imidazo[1,2-b]pyridazin-3-yl]-ethyl}-phenol]: 6.60.
The same measure for `COc1ccc(-c2ccc3ncc(Cc4ccc5ncccc5c4)n3n2)cn1` [Example 62, 6-[6-(6-Methoxy-pyridin-3-yl)-imidazo[1,2-b]pyridazin-3-ylmethyl]-quinoline]: 7.41; for `CCn1cc(-c2ccc3ncc(Cc4ccc5nccn5c4)n3n2)cn1` [Example 289, 6-(1-Ethyl-1H-pyrazol-4-yl)-3-imidazo[1,2-a]pyridin-6-ylmethyl-imidazo[1,2-b]pyridazine]: 6.85.
For `c1cnc2ccc(Cc3cnc4ccc(N5CCC6(CC5)OCCO6)nn34)cc2c1` [Example 110, 6-[6-(1,4-Dioxa-8-aza-spiro[4.5]dec-8-yl)-imidazo[1,2-b]pyridazin-3-ylmethyl]-quinoline], the pIC50 was 7.38.
The value for `COCCOCCn1cc(-c2ccc3ncc(Cc4cc5cccnc5cc4F)n3n2)cn1` [Example 233, 7-Fluoro-6-(6-{1-[2-(2-methoxy-ethoxy)-ethyl]-1H-pyrazol-4-yl}-imidazo[1,2-b]pyridazin-3-ylmethyl)-quinoline] was 6.92.

By pIC50 is commonly meant −log10 of the IC50, conventionally taken in molar units.
